Common to all, as to assay: KINOMEscan
Type in all cases: binding

In one experiment the target is T1, FLT3(R834Q) (Homo sapiens, UniProt P36888, R834Q).
T1 construct: purchased Eurofins DiscoverX KINOMEscan
T1 sequence (P36888 27-993 R834Q): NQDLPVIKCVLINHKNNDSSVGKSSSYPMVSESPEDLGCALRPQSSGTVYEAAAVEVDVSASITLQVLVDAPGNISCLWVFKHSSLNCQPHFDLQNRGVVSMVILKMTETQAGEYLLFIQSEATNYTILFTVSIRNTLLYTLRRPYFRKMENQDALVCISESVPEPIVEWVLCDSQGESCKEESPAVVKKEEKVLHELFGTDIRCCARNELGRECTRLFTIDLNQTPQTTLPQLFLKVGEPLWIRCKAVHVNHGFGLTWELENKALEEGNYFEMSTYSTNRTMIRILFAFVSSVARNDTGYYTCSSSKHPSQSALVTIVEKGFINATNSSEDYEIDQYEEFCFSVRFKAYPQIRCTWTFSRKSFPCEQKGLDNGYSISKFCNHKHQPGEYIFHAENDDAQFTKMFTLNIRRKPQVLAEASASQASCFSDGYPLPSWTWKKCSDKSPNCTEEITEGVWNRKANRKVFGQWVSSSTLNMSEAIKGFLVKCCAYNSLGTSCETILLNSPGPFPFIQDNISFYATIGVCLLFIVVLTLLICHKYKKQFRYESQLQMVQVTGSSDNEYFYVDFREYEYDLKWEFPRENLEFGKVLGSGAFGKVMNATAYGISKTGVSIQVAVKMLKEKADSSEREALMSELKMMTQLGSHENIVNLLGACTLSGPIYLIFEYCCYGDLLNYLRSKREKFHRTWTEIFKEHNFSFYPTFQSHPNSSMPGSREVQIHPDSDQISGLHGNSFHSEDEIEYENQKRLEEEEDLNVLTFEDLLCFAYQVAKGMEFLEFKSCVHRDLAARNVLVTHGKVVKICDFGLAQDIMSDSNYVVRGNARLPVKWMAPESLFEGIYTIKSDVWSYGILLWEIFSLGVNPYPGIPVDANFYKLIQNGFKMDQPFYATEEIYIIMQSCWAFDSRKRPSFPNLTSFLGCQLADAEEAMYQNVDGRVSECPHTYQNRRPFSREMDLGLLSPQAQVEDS
The settings on record: read-out: % control activity remaining.

The target of a further experiment is T2, MKNK2 (Homo sapiens, UniProt Q9HBH9).
T2 construct: purchased Eurofins DiscoverX KINOMEscan
T2 sequence (Q9HBH9 whole entry): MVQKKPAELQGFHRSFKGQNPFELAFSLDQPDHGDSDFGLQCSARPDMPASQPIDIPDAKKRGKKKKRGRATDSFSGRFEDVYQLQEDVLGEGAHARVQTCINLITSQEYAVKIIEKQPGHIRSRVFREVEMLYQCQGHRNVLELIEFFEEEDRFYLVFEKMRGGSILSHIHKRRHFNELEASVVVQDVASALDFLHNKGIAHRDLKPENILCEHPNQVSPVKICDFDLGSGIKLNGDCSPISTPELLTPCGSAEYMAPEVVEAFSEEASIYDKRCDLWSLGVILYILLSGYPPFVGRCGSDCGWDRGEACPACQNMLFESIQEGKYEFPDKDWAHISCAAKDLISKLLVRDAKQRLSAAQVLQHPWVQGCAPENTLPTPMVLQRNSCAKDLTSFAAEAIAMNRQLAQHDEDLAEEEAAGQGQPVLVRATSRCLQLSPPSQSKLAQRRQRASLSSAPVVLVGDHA
The settings on record: read-out: % control activity remaining.

For another experiment, the target named is T3, HCK (Homo sapiens, UniProt P08631).
T3 construct: purchased Eurofins DiscoverX KINOMEscan
T3 sequence (P08631 whole entry): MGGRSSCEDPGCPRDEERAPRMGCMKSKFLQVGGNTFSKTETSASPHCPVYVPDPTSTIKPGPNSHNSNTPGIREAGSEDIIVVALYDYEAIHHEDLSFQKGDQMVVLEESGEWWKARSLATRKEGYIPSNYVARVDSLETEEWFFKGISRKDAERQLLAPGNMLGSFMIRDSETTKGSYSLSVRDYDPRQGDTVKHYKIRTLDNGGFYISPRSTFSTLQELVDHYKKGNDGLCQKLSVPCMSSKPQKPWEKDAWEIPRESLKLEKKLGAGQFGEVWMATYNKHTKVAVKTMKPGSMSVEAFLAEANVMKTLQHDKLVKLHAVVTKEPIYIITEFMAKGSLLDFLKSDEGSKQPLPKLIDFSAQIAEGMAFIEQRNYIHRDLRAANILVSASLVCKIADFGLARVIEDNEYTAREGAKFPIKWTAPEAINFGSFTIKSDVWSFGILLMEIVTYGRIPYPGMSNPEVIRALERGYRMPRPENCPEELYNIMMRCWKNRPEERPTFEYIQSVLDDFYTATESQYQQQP
The settings on record: read-out: % control activity remaining.

In another experiment the target is T4, PIK4CB (Homo sapiens, UniProt Q9UBF8).
T4 construct: purchased Eurofins DiscoverX KINOMEscan
T4 sequence (Q9UBF8 whole entry): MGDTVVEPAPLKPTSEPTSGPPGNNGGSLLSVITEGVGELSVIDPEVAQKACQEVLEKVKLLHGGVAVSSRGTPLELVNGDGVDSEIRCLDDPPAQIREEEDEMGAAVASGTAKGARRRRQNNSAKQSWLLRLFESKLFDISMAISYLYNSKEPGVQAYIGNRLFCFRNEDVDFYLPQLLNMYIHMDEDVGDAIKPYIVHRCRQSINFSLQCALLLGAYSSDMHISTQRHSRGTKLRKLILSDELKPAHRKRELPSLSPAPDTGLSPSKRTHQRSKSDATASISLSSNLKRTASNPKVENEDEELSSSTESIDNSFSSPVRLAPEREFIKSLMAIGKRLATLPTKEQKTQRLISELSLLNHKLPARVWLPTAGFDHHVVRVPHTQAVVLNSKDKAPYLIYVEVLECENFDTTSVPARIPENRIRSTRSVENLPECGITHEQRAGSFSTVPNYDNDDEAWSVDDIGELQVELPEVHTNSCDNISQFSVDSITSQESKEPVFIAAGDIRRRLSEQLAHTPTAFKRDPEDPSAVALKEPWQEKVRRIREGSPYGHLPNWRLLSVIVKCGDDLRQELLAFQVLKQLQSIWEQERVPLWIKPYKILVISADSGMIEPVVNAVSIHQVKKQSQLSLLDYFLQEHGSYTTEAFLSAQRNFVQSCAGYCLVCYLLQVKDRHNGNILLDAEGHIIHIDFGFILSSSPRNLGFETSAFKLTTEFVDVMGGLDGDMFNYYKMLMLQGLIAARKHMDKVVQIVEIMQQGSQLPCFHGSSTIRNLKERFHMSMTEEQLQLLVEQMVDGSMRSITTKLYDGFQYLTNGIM
The settings on record: for remaining binding at 1 µM: read-out: % control activity remaining.

In the next experiment the target is T5, CDC2L1 (Homo sapiens, UniProt P21127).
T5 construct: purchased Eurofins DiscoverX KINOMEscan
T5 sequence (P21127 whole entry): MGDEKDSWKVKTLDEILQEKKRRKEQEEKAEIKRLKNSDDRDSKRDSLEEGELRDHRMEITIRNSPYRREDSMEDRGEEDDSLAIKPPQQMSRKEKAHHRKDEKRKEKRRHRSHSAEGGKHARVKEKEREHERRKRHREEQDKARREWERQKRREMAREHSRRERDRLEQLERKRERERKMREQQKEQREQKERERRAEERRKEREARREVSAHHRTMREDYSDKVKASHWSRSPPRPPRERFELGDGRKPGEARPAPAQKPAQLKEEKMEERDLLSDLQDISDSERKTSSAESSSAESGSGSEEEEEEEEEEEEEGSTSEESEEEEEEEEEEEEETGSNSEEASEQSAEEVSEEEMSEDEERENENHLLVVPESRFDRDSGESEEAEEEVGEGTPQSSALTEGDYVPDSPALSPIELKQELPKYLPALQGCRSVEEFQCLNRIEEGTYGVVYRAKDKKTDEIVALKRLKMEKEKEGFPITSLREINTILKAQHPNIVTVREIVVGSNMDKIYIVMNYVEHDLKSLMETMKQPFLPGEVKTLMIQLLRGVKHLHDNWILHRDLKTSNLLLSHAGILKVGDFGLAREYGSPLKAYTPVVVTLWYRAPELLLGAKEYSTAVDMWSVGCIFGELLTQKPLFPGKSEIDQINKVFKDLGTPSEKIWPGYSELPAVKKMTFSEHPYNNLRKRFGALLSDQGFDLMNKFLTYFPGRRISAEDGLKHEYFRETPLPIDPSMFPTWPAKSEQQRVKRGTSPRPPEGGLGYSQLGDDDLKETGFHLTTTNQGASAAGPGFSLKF
The settings on record: read-out: % control activity remaining.

In the next experiment the target is T6, DDR2 (Homo sapiens, UniProt Q16832).
T6 construct: purchased Eurofins DiscoverX KINOMEscan
T6 sequence (Q16832 22-855): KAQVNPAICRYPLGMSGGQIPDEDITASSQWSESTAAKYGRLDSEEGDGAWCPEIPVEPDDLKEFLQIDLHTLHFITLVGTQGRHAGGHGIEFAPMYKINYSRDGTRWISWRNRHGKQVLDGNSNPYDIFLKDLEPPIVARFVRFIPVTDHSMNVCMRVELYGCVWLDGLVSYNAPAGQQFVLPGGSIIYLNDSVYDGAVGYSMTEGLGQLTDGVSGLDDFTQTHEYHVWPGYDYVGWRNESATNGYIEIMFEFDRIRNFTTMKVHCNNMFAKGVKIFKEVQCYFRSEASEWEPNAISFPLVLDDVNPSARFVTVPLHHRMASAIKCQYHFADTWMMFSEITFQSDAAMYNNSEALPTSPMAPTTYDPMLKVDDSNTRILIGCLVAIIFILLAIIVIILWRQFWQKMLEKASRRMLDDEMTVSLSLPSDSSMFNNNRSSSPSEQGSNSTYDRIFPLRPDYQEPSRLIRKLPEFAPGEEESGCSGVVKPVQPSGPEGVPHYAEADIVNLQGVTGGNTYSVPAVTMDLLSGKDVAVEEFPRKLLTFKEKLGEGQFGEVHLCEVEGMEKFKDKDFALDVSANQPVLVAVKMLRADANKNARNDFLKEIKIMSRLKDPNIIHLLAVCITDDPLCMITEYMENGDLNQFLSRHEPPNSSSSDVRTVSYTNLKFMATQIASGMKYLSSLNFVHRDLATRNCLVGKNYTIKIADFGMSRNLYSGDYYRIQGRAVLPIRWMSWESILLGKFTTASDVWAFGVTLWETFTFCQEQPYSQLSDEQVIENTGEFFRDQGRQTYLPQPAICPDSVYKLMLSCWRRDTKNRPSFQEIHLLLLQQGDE
The settings on record: read-out: % control activity remaining.

For a further experiment, the target named is T7, KIT-autoinhibited (Homo sapiens, UniProt P10721).
T7 construct: purchased Eurofins DiscoverX KINOMEscan
T7 sequence (P10721 26-976): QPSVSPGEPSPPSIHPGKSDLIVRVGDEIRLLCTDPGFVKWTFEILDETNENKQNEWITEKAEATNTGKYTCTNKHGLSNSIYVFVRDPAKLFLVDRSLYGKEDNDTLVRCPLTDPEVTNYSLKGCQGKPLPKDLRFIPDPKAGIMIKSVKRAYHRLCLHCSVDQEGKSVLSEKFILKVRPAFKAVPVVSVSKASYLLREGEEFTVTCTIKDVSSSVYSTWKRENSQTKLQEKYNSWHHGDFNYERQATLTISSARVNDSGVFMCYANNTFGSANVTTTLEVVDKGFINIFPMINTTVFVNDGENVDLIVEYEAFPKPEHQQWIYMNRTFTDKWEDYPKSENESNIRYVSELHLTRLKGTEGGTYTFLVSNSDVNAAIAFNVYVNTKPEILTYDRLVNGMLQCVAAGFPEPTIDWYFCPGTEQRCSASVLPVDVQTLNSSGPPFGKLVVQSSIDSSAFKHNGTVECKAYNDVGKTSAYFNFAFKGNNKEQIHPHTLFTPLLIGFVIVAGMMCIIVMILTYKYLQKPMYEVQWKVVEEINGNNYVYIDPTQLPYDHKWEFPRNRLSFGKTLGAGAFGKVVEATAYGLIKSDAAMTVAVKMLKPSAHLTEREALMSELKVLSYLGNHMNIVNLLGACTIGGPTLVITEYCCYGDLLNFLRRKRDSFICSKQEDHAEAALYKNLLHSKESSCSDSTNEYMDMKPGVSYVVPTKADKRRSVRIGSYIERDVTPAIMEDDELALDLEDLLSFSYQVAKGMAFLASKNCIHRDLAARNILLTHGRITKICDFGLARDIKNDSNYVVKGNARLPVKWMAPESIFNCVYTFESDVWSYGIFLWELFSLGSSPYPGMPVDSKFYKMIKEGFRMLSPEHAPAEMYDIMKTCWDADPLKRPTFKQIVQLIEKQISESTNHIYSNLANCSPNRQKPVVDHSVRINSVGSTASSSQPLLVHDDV
The settings on record: read-out: % control activity remaining.

A further experiment addresses T8, IKK-beta (Homo sapiens, UniProt O14920).
T8 construct: purchased Eurofins DiscoverX KINOMEscan
T8 sequence (O14920 1-756): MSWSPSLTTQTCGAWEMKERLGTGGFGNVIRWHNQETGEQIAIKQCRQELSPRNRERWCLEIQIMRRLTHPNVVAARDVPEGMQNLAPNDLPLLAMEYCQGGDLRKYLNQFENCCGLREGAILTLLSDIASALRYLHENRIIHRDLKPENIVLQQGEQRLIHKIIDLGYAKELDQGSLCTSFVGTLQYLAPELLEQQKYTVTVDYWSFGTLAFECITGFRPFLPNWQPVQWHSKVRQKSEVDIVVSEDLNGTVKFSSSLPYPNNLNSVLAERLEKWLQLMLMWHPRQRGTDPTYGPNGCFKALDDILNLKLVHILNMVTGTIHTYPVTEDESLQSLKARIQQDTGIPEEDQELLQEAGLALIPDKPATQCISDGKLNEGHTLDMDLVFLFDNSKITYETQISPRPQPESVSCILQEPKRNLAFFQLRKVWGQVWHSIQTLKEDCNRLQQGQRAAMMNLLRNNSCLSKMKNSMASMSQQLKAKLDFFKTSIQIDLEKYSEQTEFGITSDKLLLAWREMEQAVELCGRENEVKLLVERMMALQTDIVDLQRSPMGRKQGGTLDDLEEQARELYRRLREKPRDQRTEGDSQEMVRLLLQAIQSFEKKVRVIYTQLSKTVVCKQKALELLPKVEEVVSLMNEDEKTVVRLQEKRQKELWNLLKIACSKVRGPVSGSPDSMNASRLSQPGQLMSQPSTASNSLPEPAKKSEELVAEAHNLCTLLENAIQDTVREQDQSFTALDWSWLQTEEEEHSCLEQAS
The settings on record: read-out: % control activity remaining.

The results in this text go back to article PMC6437697 (Journal of Medicinal Chemistry, 2019).

With `Clc1cc(NCC2CC2)c2ncc(-c3ccc4[nH]ncc4c3)n2n1` [compound 2, 6-Chloro-N-(cyclopropylmethyl)-3-(1H-indazol-5-yl)imidazo[1,2-b]pyridazin-8-amine], the remaining binding at 1 µM on FLT3(R834Q) came to 94%; on MKNK2, 80%; on HCK it was 80%; on PIK4CB, 3.3%; at CDC2L1, 100%; on DDR2 it was 86%. Further, the remaining binding at 1 µM came to 82% on KIT-autoinhibited and 83% at IKK-beta. In addition, at PIK4CB (read-out: Probe binding inhibited), the inhibition at 1 µM is > 90%.
Regarding `O=C(CN1CCOCC1)N[C@H]1CC[C@H](Nc2cc(Cl)nn3c(-c4ccc5[nH]ncc5c4)cnc23)CC1` [compound 26], the remaining binding at 1 µM amounted to 0.7% on FLT3(R834Q); 67% at MKNK2; 93% at HCK; 21% at PIK4CB; 100% at CDC2L1; 98% at DDR2. Moreover, the remaining binding at 1 µM on KIT-autoinhibited is 34%; at IKK-beta, 94%.
For the molecule `CN1CCC(CNc2cc(Cl)nn3c(-c4cc5nc(Nc6ccccc6)[nH]c5cc4F)cnc23)CC1` [compound 31, 6-Chloro-3-(6-fluoro-2-(phenylamino)-1H-benzo[d]imidazol-5-yl)-N-((1-methylpiperidin-4-yl)methyl)imidazo[1,2-b]pyridazin-8-amine], the remaining binding at 1 µM on FLT3(R834Q) amounted to 100%; on MKNK2, 74%; at HCK, 87%; at PIK4CB, 73%; at CDC2L1 it was 92%; on DDR2, 100%. Further, the remaining binding at 1 µM at KIT-autoinhibited is 98%; at IKK-beta it was 90%.
